This note sets out measurements from PubChem BioAssay AID1918953 (Molecular Pharmacology Branch, DTP, NCI, 2023).

Each structure is given as a SMILES string. Where “and” joins values, the source holds several entries; their conditions need not be identical. Equal values may be shown once.

The experiment has as its system MDA-MB-231 complex spheroid viability. The experiment in a line: Anticancer human tumor MDA-MB-231/ATCC cell line growth inhibition.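 As to all read-outs here: drug exposure lasted 7 days starting on day 3 of spheroid growth.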 To be noted: for viability, T/C: stronger effect = lower value. The essentials: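 Multicellular complex spheroids of tumor cells with human endothelial cells (HUVEC) and mesenchymal stem cells; the LSD1 inhibitor iadademstat was combined with standard-of-care or investigational agents. Top concentration at or near clinical Cmax, half-log dilutions; final DMSO ≤0.25%.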

Where [1] appears, read: curve of first compound, second compound 0.1 µM.
Setting [2] is: curve of first compound, second compound 0.316 µM.
Setting [3] is: curve of first compound, second compound 1 µM.
The mark [4] stands for this setting: curve of first compound, second compound 3.16 µM.
Where [5] appears, read: curve of first compound, second compound 10 µM.
Where [6] appears, read: second compound 0.1 µM, first compound 0.00949 µM.
The mark [7] stands for this setting: second compound 0.1 µM, first compound 0.03 µM.
[8] abbreviates: second compound 0.1 µM, first compound 0.0949 µM.
[9] abbreviates: second compound 0.1 µM, first compound 0.3 µM.
Setting [10] is: second compound 0.1 µM, first compound 0.949 µM.
Setting [11] is: second compound 0.1 µM, first compound 3 µM.
Setting [12] is: second compound 0.316 µM, first compound 0.00949 µM.
Where [13] appears, read: second compound 0.316 µM, first compound 0.03 µM.
[14] abbreviates: second compound 0.316 µM, first compound 0.0949 µM.
Where [15] appears, read: second compound 0.316 µM, first compound 0.3 µM.
Where [16] appears, read: second compound 0.316 µM, first compound 0.949 µM.
The mark [17] stands for this setting: second compound 0.316 µM, first compound 3 µM.
Where [18] appears, read: second compound 1 µM, first compound 0.00949 µM.
The mark [19] stands for this setting: second compound 1 µM, first compound 0.03 µM.
Setting [20] is: second compound 1 µM, first compound 0.0949 µM.
The mark [21] stands for this setting: second compound 1 µM, first compound 0.3 µM.
[22] abbreviates: second compound 1 µM, first compound 0.949 µM.
The mark [23] stands for this setting: second compound 1 µM, first compound 3 µM.
Where [24] appears, read: second compound 3.16 µM, first compound 0.00949 µM.
Where [25] appears, read: second compound 3.16 µM, first compound 0.03 µM.
Setting [26] is: second compound 3.16 µM, first compound 0.0949 µM.
The mark [27] stands for this setting: second compound 3.16 µM, first compound 0.3 µM.
The mark [28] stands for this setting: second compound 3.16 µM, first compound 0.949 µM.
The mark [29] stands for this setting: second compound 3.16 µM, first compound 3 µM.
The mark [30] stands for this setting: second compound 10 µM, first compound 0.00949 µM.
Setting [31] is: second compound 10 µM, first compound 0.03 µM.
Where [32] appears, read: second compound 10 µM, first compound 0.0949 µM.
Where [33] appears, read: second compound 10 µM, first compound 0.3 µM.
The mark [34] stands for this setting: second compound 10 µM, first compound 0.949 µM.
The mark [35] stands for this setting: second compound 10 µM, first compound 3 µM.

As to `CCN(c1cc(-c2ccc(CN3CCOCC3)cc2)cc(C(=O)NCc2c(C)cc(C)[nH]c2=O)c1C)C1CCOCC1` + NC1CC1c1ccc(-c2cccc(O)c2)cc1, the IC50 (commonly the concentration that gives 50% inhibition) by setting is: under setting [1], 0.143 µM; under setting [2], 0.0997 µM; under setting [3], 0.0997 µM; under setting [4], 0.092 µM; under setting [5], 0.0131 µM. Besides, the viability, T/C (commonly the result in the treated group divided by that in the control group, in per cent) was 89.6% under setting [6]; 82% under setting [7]; 51.3% under setting [8]; 40% under setting [9]; 27.8% under setting [10]; 17.8% under setting [11]. Further, the viability, T/C reads like this: under setting [12], 73.1%; under setting [13], 70.2%; under setting [14], 46.2%; under setting [15], 36.4%; under setting [16], 25.2%; under setting [17], 16.6%. The viability, T/C runs as follows: under setting [18], 68.2%; under setting [19], 69.7%; under setting [20], 46.7%; under setting [21], 35.1%; under setting [22], 23.9%; under setting [23], 17.1%. Moreover, the viability, T/C was 72.5% under setting [24]; 71.6% under setting [25]; 44.7% under setting [26]; 34.3% under setting [27]; 21.8% under setting [28]; 16.6% under setting [29]. The viability, T/C under setting [30] is 52.6%; the viability, T/C under setting [31] is 43.1%; the viability, T/C under setting [32] is 34.3%; the viability, T/C under setting [33] is 24.6%; the viability, T/C under setting [34] is 16.8%; the viability, T/C under setting [35] was 12.2%.

On to `Nc1ccccc1NC(=O)c1ccc(CNC(=O)OCc2cccnc2)cc1` + NC1CCC(NC2CC2c2ccccc2)CC1, for which the half-inhibitory concentration (IC50) under setting [1] stood at 0.0622 µM; the IC50 under setting [2] is 0.0658 µM; the IC50 under setting [3] stood at 0.0507 µM; the IC50 under setting [4] was determined as 0.0385 µM; the IC50 under setting [5] stood at 0.0263 µM. Further, the viability, T/C was 89.4% under setting [6]; 61% under setting [7]; 39% under setting [8]; 31.5% under setting [9]; 15.9% under setting [10]; 3.58% under setting [11]. In addition, the viability, T/C under setting [12] is 86.2%; the viability, T/C under setting [13] was 64.6%; the viability, T/C under setting [14] is 39.6%; the viability, T/C under setting [15] was 29.4%; the viability, T/C under setting [16] was 16.3%; the viability, T/C under setting [17] was 2.82%. Further, the viability, T/C by setting is: under setting [18], 85%; under setting [19], 58%; under setting [20], 37%; under setting [21], 26.4%; under setting [22], 14.3%; under setting [23], 2.97%. Further, the viability, T/C runs as follows: under setting [24], 72.7%; under setting [25], 54.1%; under setting [26], 35.7%; under setting [27], 20.6%; under setting [28], 10.1%; under setting [29], 1.4%. In addition, the viability, T/C runs as follows: under setting [30], 63.2%; under setting [31], 47.7%; under setting [32], 32.2%; under setting [33], 15.1%; under setting [34], 7.15%; under setting [35], 0.5%.

As to `CC1(C)CCC(CN2CCN(c3ccc(C(=O)NS(=O)(=O)c4ccc(NCC5CCOCC5)c([N+](=O)[O-])c4)c(Oc4cnc5[nH]ccc5c4)c3)CC2)=C(c2ccc(Cl)cc2)C1`, the viability, T/C was 109% (compound 0.0316 µM); 105% and 107% (compound 0.1 µM); 100% and 114% (compound 0.316 µM); 103% and 123% (compound 1 µM); 102% and 83.3% (compound 3.16 µM). Also, the IC50 (curve of compound) is 7.61 µM and 5.06 µM.

With `NS(=O)(=O)OCC1CC(n2ccc3c(NC4CCc5ccccc54)ncnc32)CC1O` (stereo not drawn) + NC1CC1c1ccc(-c2cccc(O)c2)cc1, the IC50 runs as follows: under setting [1], 0.0823 µM; under setting [2], 0.0753 µM; under setting [3], 0.082 µM; under setting [4], 0.0706 µM; under setting [5], 0.0364 µM. Further, the viability, T/C under setting [6] is 128%; the viability, T/C under setting [7] was 94.3%; the viability, T/C under setting [8] was 44.1%; the viability, T/C under setting [9] was 28.6%; the viability, T/C under setting [10] is 28.8%; the viability, T/C under setting [11] was 27.9%. Further, the viability, T/C is 118% under setting [12]; 93.5% under setting [13]; 39.1% under setting [14]; 27.2% under setting [15]; 23.9% under setting [16]; 27.8% under setting [17]. The viability, T/C is 114% under setting [18]; 90.1% under setting [19]; 44.2% under setting [20]; 29.3% under setting [21]; 25.6% under setting [22]; 28.4% under setting [23]. In addition, the viability, T/C is 116% under setting [24]; 78.9% under setting [25]; 40.8% under setting [26]; 27% under setting [27]; 30.4% under setting [28]; 28.3% under setting [29]. For the same compound, the viability, T/C was 68.6% under setting [30]; 53.4% under setting [31]; 34.8% under setting [32]; 27% under setting [33]; 26.3% under setting [34]; 20.2% under setting [35].

`Nc1ncn(C2CC(O)C(CO)S2)c(=O)n1` (stereo not drawn): the viability, T/C (compound 0.000949 µM) is 90.3% and 85%; the viability, T/C (compound 0.003 µM) was 72.3% and 68.7%; the viability, T/C (compound 0.00949 µM) was 61% and 45.8%; the viability, T/C (compound 0.03 µM) is 37.2% and 31.3%; the viability, T/C (compound 0.0949 µM) was 20.2% and 19.9%; the viability, T/C (compound 0.3 µM) is 11.1% and 9.34%. Besides, the IC50 (curve of compound) is 0.0148 µM and 0.0083 µM.
